Measurements published in ChEMBL document CHEMBL1129048, “A novel, picomolar inhibitor of human immunodeficiency virus type 1 protease” (J Med Chem, 1996).

Assays:
MT4 = test: In vitro effective concentration against MT-4 cell line; format: functional, cell-based; settings: Homo sapiens
[1] = molecular target: Human immunodeficiency virus type 1 protease (Human immunodeficiency virus 1, UniProt Q72874); test: Inhibitory activity against HIV-1 Protease

Row | SMILES | EC50 (MT4) | Ki [1]
1 | O=C1N(Cc2ccc(CO)cc2)[C@H](Cc2ccccc2)[C@H](O)CN(Cc2ccccc2)N1Cc1ccc(CO)cc1 | 90 nM | 0.22 nM
2 | O=C1N(Cc2ccc(O)cc2)[C@H](Cc2ccccc2)[C@H](O)CN(Cc2ccccc2)N1Cc1ccc(O)cc1 | 10 nM | 0.07 nM
3 | COc1cc(CN2C(=O)N(CC3CC3)N(Cc3ccccc3)C[C@@H](O)[C@H]2Cc2ccccc2)ccc1O | 170 nM | 0.062 nM
4 | O=C1N(Cc2ccc(CO)cc2)[C@H](Cc2ccccc2)[C@H](O)[C@@H](O)[C@@H](Cc2ccccc2)N1Cc1ccc(CO)cc1 [DMP-323] | 30 nM | 0.23 nM
5 | O=C1N(Cc2ccc(CO)cc2)[C@H](Cc2ccccc2)[C@H](O)CN(Cc2ccoc2)N1Cc1ccc(CO)cc1 | 100 nM | 0.49 nM
6 | COc1cc(CN2C(=O)N(Cc3ccc(O)c(OC)c3)N(Cc3ccccc3)C[C@@H](O)[C@H]2Cc2ccccc2)ccc1O | 2 nM | –
7 | COc1cccc(CN2C(=O)N(Cc3cccc(OC)c3)N(Cc3ccccc3)C[C@@H](O)[C@H]2Cc2ccccc2)c1 | 930 nM | 0.22 nM
8 | O=C1N(Cc2ccccc2)[C@H](Cc2ccccc2)[C@H](O)CN(Cc2ccccc2)N1Cc1ccccc1 | 2860 nM | 2 nM
